Reference: the supplement of paper PMC10307832

Tests used:
Test in all cases: relative viability (nuclei count vs DMSO), 5 days (fraction); higher = more cells survive
FG-4592 + Bortezomib = compound: Cc1nc(C(=O)NCC(=O)O)c(O)c2ccc(Oc3ccccc3)cc12 [FG-4592] + CC(C)C[C@H](NC(=O)[C@H](Cc1ccccc1)NC(=O)c1cnccn1)B(O)O [Bortezomib] (partner 0.002 µM)
Summary of the method: (§1)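 Five library-drug doses in √10 steps were combined with a fixed anchor-drug dose, or a single drug was given alone, by pin tool to lung cancer cell lines in 1536-well plates the day after seeding. Nuclei were stained and counted after 5 days. Relative viability is the nuclei count in treated wells over that in vehicle wells, taken as the median of duplicate plates.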

IU1-47 + Tozasertib = compound: CC1=CC(=C(N1C2=CC=C(C=C2)Cl)C)C(=O)CN3CCCCC3 [IU1-47] + Cc1cc(Nc2cc(N3CCN(C)CC3)nc(Sc3ccc(NC(=O)C4CC4)cc3)n2)n[nH]1 [Tozasertib] (partner 0.1 µM)
Summary of the method: as §1

FG-4592 + Foretinib = compound: Cc1nc(C(=O)NCC(=O)O)c(O)c2ccc(Oc3ccccc3)cc12 [FG-4592] + COc1cc2c(Oc3ccc(NC(=O)C4(C(=O)Nc5ccc(F)cc5)CC4)cc3F)ccnc2cc1OCCCN1CCOCC1 [Foretinib] (partner 0.25 µM)
Summary of the method: as §1

FG-4592 + Linsitinib = compound: Cc1nc(C(=O)NCC(=O)O)c(O)c2ccc(Oc3ccccc3)cc12 [FG-4592] + C[C@]1(O)C[C@@H](c2nc(-c3ccc4ccc(-c5ccccc5)nc4c3)c3c(N)nccn32)C1 [Linsitinib] (partner 1 µM)
Summary of the method: as §1

Row | Cell Line | relative viability (FG-4592 + Bortezomib; first compound 0.08 µM) | relative viability (FG-4592 + Bortezomib; first compound 0.253 µM) | relative viability (FG-4592 + Bortezomib; first compound 0.8 µM) | relative viability (FG-4592 + Bortezomib; first compound 2.53 µM) | relative viability (FG-4592 + Bortezomib; first compound 8 µM) | relative viability (IU1-47 + Tozasertib; first compound 0.08 µM) | relative viability (IU1-47 + Tozasertib; first compound 0.253 µM) | relative viability (IU1-47 + Tozasertib; first compound 0.8 µM) | relative viability (IU1-47 + Tozasertib; first compound 2.53 µM) | relative viability (IU1-47 + Tozasertib; first compound 8 µM) | relative viability (FG-4592 + Foretinib; first compound 0.08 µM) | relative viability (FG-4592 + Foretinib; first compound 0.253 µM) | relative viability (FG-4592 + Foretinib; first compound 0.8 µM) | relative viability (FG-4592 + Foretinib; first compound 2.53 µM) | relative viability (FG-4592 + Foretinib; first compound 8 µM) | relative viability (FG-4592 + Linsitinib; first compound 0.08 µM) | relative viability (FG-4592 + Linsitinib; first compound 0.253 µM) | relative viability (FG-4592 + Linsitinib; first compound 0.8 µM) | relative viability (FG-4592 + Linsitinib; first compound 2.53 µM) | relative viability (FG-4592 + Linsitinib; first compound 8 µM)
1 | LCLC-103H | 1.04 | 1.01 | 1.02 | 1.09 | 1.15 | 0.576 | 0.586 | 0.531 | 0.503 | 0.451 | 0.716 | 0.671 | 0.632 | 0.799 | 0.769 | 0.969 | 1.1 | 0.89 | 1.1 | 0.854
2 | LOU-NH91 | 0.509 | 0.49 | 0.48 | 0.455 | 0.568 | 0.638 | 0.693 | 0.702 | 0.737 | 0.592 | 0.971 | 0.879 | 0.917 | 0.868 | 0.91 | 0.92 | 0.83 | 0.755 | 0.938 | 0.907
3 | LU99A | 1.08 | 1.03 | 0.798 | 1.04 | 1.01 | 0.283 | 0.266 | 0.282 | 0.314 | 0.231 | 0.789 | 0.791 | 0.743 | 0.879 | 0.808 | 0.488 | 0.565 | 0.46 | 0.483 | 0.548
4 | LXF-289 | 1.02 | 0.886 | 1.05 | 0.97 | 0.973 | 0.212 | 0.203 | 0.224 | 0.22 | 0.171 | 0.97 | 0.981 | 0.993 | 0.974 | 1.12 | 0.972 | 0.947 | 1.02 | 0.968 | 1.02
5 | NCI-H23 | 0.922 | 0.977 | 0.962 | 0.834 | 0.826 | 0.364 | 0.341 | 0.427 | 0.376 | 0.341 | 1.01 | 0.856 | 0.973 | 0.999 | 0.966 | 0.611 | 0.501 | 0.635 | 0.496 | 0.463
6 | NCI-H322M | 1.37 | 1.18 | 1.17 | 1.25 | 1.3 | 0.496 | 0.558 | 0.506 | 0.54 | 0.477 | 0.87 | 0.937 | 0.903 | 0.975 | 0.91 | 0.858 | 0.914 | 0.807 | 0.92 | 0.861
7 | NCI-H441 | 0.272 | 0.647 | 0.356 | 0.44 | 0.367 | 0.824 | 0.713 | 0.667 | 0.662 | 0.544 | 0.956 | 0.896 | 0.931 | 0.841 | 1.01 | 0.451 | 0.498 | 0.477 | 0.57 | 0.562
8 | NCI-H460 | 1.13 | 1.04 | 1.22 | 1.05 | 1.34 | 0.459 | 0.513 | 0.496 | 0.57 | 0.393 | 0.986 | 1.04 | 1.04 | 1.03 | 1.03 | 0.708 | 0.665 | 0.788 | 0.766 | 0.748
